Data taken from ChEMBL document CHEMBL5036306 (J Med Chem, 2021).
Calls of active or inactive are those of the source. The rule behind the calls is not given here.

Assays:
[1] = Toxicity in mouse model of Alzheimer's disease assessed as drug tolerability at 0.3 to 3 mg/kg, ip measured after 7 days; assay type: organism-based; details: in vivo, 168 h, dose 0.3-3 mg/kg, time 7 day
Mus musculus [2] = test: Anti-alzheimer activity against amyloid beta (25 to 35) induced working memory deficit mouse assessed as step-through latency time to enter dark compartment at 0.1 to 0.3 mg/kg, ip administered for 7 days and measured on day 9 days by passive avoidance test; assay type: functional, organism-based; details: dose 0.1-0.3 mg/kg, time 9.0 day
N9 [3] = test: Immunomodulatory activity in mouse N9 microglial cells assessed as reduction in LPS-induced IL1beta level incubated for 24 hrs by colorimetric assay; assay type: functional, cell-based; details: dose 0.1-5 µM
Mus musculus [4] = test: Anti-alzheimer activity against amyloid beta (25 to 35) induced working memory deficit mouse assessed as step-through latency time to enter dark compartment at 1 mg/kg, ip administered for 7 days and measured on day 9 days by passive avoidance test; assay type: functional, organism-based; details: time 9.0 day
Mus musculus [5] = test: Anti-alzheimer activity against amyloid beta (25 to 35) induced working memory deficit in mouse assessed as increase in spontaneous alternation performance at 0.3 to 1 mg/kg, ip administered for 7 days and measured on day 8 by Y-maze test; assay type: functional, organism-based; details: dose 0.3-1 mg/kg, time 8.0 day
[6] = target: T1, Protein deacetylase HDAC6 (Mus musculus) (UniProt Q9Z2V5); test: Inhibition of HDAC6 in mouse HT-22 cells assessed as increase in acetylated histone H4 level at 20 to 500 nM after 24 hrs by Western blotting analysis; assay type: cell-based; details: dose 20-500 nM
T1 sequence (whole entry): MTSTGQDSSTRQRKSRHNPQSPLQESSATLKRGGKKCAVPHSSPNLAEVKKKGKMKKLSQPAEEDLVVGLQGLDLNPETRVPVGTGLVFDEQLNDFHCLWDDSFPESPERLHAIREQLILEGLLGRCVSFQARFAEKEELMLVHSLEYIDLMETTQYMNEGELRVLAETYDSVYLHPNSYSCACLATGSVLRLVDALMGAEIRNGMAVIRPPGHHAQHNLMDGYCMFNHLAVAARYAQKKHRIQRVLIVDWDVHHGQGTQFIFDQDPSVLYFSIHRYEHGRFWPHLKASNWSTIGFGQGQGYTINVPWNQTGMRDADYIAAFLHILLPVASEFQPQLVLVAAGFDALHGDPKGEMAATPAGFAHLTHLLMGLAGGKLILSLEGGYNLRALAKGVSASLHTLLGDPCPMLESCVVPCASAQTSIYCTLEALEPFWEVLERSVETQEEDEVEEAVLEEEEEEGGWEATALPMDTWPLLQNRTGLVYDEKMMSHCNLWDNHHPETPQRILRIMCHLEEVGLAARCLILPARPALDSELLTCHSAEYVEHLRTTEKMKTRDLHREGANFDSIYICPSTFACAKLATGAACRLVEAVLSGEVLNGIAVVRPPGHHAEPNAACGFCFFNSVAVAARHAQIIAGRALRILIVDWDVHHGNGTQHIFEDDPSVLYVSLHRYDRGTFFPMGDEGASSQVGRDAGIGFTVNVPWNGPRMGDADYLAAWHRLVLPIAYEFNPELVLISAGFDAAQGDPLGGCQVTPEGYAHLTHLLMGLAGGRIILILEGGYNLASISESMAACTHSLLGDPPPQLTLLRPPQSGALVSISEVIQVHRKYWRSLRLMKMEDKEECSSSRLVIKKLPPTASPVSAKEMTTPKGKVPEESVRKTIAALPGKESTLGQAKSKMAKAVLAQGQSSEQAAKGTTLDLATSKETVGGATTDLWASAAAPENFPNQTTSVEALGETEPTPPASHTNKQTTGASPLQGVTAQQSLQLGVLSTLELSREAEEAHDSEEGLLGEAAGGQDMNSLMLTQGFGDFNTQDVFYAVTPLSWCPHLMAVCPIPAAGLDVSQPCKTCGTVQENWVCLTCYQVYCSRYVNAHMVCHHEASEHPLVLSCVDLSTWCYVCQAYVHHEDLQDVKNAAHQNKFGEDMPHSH

N9 [7] = test: Immunomodulatory activity in mouse N9 microglial cells assessed as reduction in LPS-induced nitrite accumulation incubated for 24 hrs by Griess reagent based analysis; assay type: functional, cell-based; details: dose 0.1-5 µM
[8] = target: T1, Protein deacetylase HDAC6 (Mus musculus); test: Inhibition of HDAC6 in mouse HT-22 cells assessed as increase in acetylated histone H3 level at 20 to 500 nM after 24 hrs by Western blotting analysis; assay type: cell-based; details: dose 20-500 nM
[9] = target: T1, Protein deacetylase HDAC6 (Mus musculus); test: Inhibition of HDAC6 in mouse HT-22 cells assessed as increase in acetylated tubulin level at […] after 24 hrs by Western blotting analysis; assay type: cell-based

| inhibition [6] | inhibition [8] | inhibition [9] | SMILES | Activity [1] | Activity (Mus musculus [2]) | Activity (N9 [3]) | Activity (Mus musculus [4]) | Activity (Mus musculus [5]) | Activity (N9 [7]) |
| --- | --- | --- | --- | --- | --- | --- | --- | --- | --- |
| inactive | inactive | – | COc1ccc2[nH]cc(CCN(Cc3ccc(C(=O)NO)cc3)C(=O)/C=C/c3ccc(O)c(OC)c3)c2c1 | Non-Toxic | Active | Dose-Dependent Effect | inactive | Active | Dose-Dependent Effect |
| – | – | Active | COc1ccc2c(c1)c(CCNC(C)=O)cn2Cc1ccc(C(=O)NO)cc1 | – | – | – | – | – | – |
